Measured values published in the supplement of paper PMC13380429.

Columns and labels:
U2OS [1] = assay: cell viability relative to DMSO; higher = less toxic; conditions: 72 h
Vero E6 [2] = assay: as above; conditions: 72 h
Calu-3 [3] = assay: as above; conditions: 72 h
Caco-2 [4] = assay: as above; conditions: 72 h
HepG2 [5] = assay: as above; conditions: 72 h
[6] = system: A549-ACE2 infected with SARS-CoV-2; assay: morphology score (similarity to uninfected cells); higher = more like uninfected cells; conditions: 24 h
[7] = system: A549-ACE2 infected with SARS-CoV-2; assay: cell count relative to DMSO; higher = less toxic; conditions: 24 h
A549-ACE2 [8] = assay: drug-induced phospholipidosis relative to tamoxifen; higher = more phospholipidosis
[9] = system: A549-ACE2 infected with SARS-CoV-2; assay: SARS-CoV-2 infection rate relative to DMSO; higher = more infection; conditions: 24 h
U2OS [10] = assay: drug sensitivity score (DSS) for viability; higher = more toxic; extreme values may be limits of the assay; conditions: 72 h
Vero E6 [11] = assay: as above; conditions: 72 h
Calu-3 [12] = assay: as above; conditions: 72 h
Caco-2 [13] = assay: as above; conditions: 72 h
HepG2 [14] = assay: as above; conditions: 72 h
Vero E6 [15] = assay: relative viability EC50 (midpoint between 100% and the lowest measured viability); higher = less toxic; conditions: 72 h
Calu-3 [16] = assay: as above; conditions: 72 h
HepG2 [17] = assay: as above; conditions: 72 h
U2OS [18] = assay: as above; conditions: 72 h
Caco-2 [19] = assay: as above; conditions: 72 h
A549-ACE2 [20] = assay: phospholipidosis EC50; higher = less potent phospholipidosis inducer

Cc1c(-c2ccc(O)cc2)n(Cc2ccc(OCCN3CCCCCC3)cc2)c2ccc(O)cc12 [bazedoxifene]
Conditions	SARS-CoV-2 infection rate, [9] [%]	cell count, [7] [%]	cell viability, Caco-2 [4] [%]	cell viability, Calu-3 [3] [%]	cell viability, HepG2 [5] [%]	cell viability, U2OS [1] [%]	cell viability, Vero E6 [2] [%]	morphology score, [6]
1 nM	–	–	104	96.3	95.2	104	102	–
10 nM	–	–	95.3	91.5	106	101	105	–
100 nM	–	–	95.4	105	95.3	104	98.3	–
0.1 µM	97	99	–	–	–	–	–	0.02
0.3 µM	103	105	–	–	–	–	–	0.05
1000 nM	–	–	91.5	97.6	98.1	99.2	100	–
1 µM	85	103	–	–	–	–	–	0.36
3 µM	22	122	–	–	–	–	–	0.83
10000 nM	–	–	60.4	11.6	12.3	53	18.1	–

drug-induced phospholipidosis [%], A549-ACE2 [8]
Conditions	0.3 µM	0.833333 µM	3.33333 µM	6.66667 µM	10 µM
24 h	0.63	6.49	23.7	37.6	4.23
48 h	0.36	3.68	24.9	44.4	36.7
72 h	0.978	3.09	19.4	39.6	52.6

Conditions	drug sensitivity score	relative viability EC50 [µM]
Caco-2 [13]	3.3	–
Calu-3 [12]	5.2	–
Calu-3 [16]	–	2.97
HepG2 [14]	5.1	–
HepG2 [17]	–	3.01
U2OS [10]	2.5	–
Vero E6 [11]	4.5	–
Vero E6 [15]	–	3.18

COc1ccc2cc1Oc1ccc(cc1)C[C@H]1c3c(cc4c(c3Oc3cc5c(cc3OC)CCN(C)[C@@H]5C2)OCO4)CCN1C [cepharanthine]
Conditions	SARS-CoV-2 infection rate, [9] [%]	cell count, [7] [%]	cell viability, Caco-2 [4] [%]	cell viability, Calu-3 [3] [%]	cell viability, HepG2 [5] [%]	cell viability, U2OS [1] [%]	cell viability, Vero E6 [2] [%]	morphology score, [6]
1 nM	–	–	93.5	105	99.5	95.7	95.7	–
10 nM	–	–	102	107	87.8	104	98.8	–
100 nM	–	–	105	99.3	95.9	97	96	–
0.3 µM	98	104	–	–	–	–	–	0.04
1000 nM	–	–	108	96.5	87.7	97.7	88.9	–
3 µM	75	111	–	–	–	–	–	0.53
10000 nM	–	–	93.1	78.7	93.7	86.5	92.9	–
10 µM	69	122	–	–	–	–	–	0.79
30 µM	27	104	–	–	–	–	–	0.49

drug-induced phospholipidosis [%], A549-ACE2 [8]
Conditions	0.3 µM	0.833333 µM	3.33333 µM	6.66667 µM	10 µM	30 µM
24 h	9.38	2.99	21.4	34.2	49.7	34.6
48 h	6.7	5.05	19.4	29.3	35.4	–
72 h	6.61	3.04	15.2	24.3	32.4	–

Conditions	drug sensitivity score	relative viability EC50 [µM]
Caco-2 [13]	0	–
Caco-2 [19]	–	> 10
Calu-3 [12]	1.2	–
Calu-3 [16]	–	> 10
HepG2 [14]	0	–
HepG2 [17]	–	> 10
U2OS [10]	0.3	–
U2OS [18]	–	> 10
Vero E6 [11]	0	–
Vero E6 [15]	–	> 10

CCN(CC)CCOC(=O)C1(C2CCCCC2)CCCCC1 [dicycloverine]
Conditions	SARS-CoV-2 infection rate, [9] [%]	cell count, [7] [%]	cell viability, Caco-2 [4] [%]	cell viability, Calu-3 [3] [%]	cell viability, HepG2 [5] [%]	cell viability, U2OS [1] [%]	cell viability, Vero E6 [2] [%]	morphology score, [6]
1 nM	–	–	99.3	93.2	95.7	97	96.1	–
10 nM	–	–	95.6	104	97.6	99.3	94	–
100 nM	–	–	97.2	91.8	103	99.3	98	–
0.3 µM	94	97	–	–	–	–	–	0.02
1000 nM	–	–	98.1	91.8	98.7	108	92.6	–
3 µM	66	112	–	–	–	–	–	0.62
10000 nM	–	–	102	102	105	104	108	–
10 µM	46	114	–	–	–	–	–	0.78
30 µM	34	118	–	–	–	–	–	0.84

drug-induced phospholipidosis [%], A549-ACE2 [8]
Conditions	0.3 µM	0.833333 µM	3.33333 µM	6.66667 µM	10 µM	30 µM
24 h	4.66	1.82	4.06	5.19	6.77	68.6
48 h	6.16	1.46	3.34	3.8	4.6	45.9
72 h	5.16	-0.588	0.239	2.22	2.64	30.3

Conditions	drug sensitivity score	relative viability EC50 [µM]
Caco-2 [13]	0	–
Caco-2 [19]	–	> 10
Calu-3 [12]	0	–
Calu-3 [16]	–	> 10
HepG2 [14]	0	–
HepG2 [17]	–	> 10
U2OS [10]	0	–
U2OS [18]	–	> 10
Vero E6 [11]	0	–
Vero E6 [15]	–	> 10

Cc1ncc(NC(=O)c2ccc(CN3CCN(C)CC3)c(C(F)(F)F)c2)cc1Nc1nccc(-c2cccnc2)n1 [flumatinib]
Conditions	SARS-CoV-2 infection rate [%]	cell count [%]	cell viability [%]	morphology score	phospholipidosis EC50 [µM]
A549-ACE2 [20], 24 h	–	–	–	–	3.17
A549-ACE2 [20], 48 h	–	–	–	–	4.74
A549-ACE2 [20], 72 h	–	–	–	–	5.39
Caco-2 [4], 1 nM	–	–	105	–	–
Caco-2 [4], 10 nM	–	–	107	–	–
Caco-2 [4], 100 nM	–	–	101	–	–
Caco-2 [4], 1000 nM	–	–	95.5	–	–
Caco-2 [4], 10000 nM	–	–	83.2	–	–
Calu-3 [3], 1 nM	–	–	104	–	–
Calu-3 [3], 10 nM	–	–	92.7	–	–
Calu-3 [3], 100 nM	–	–	102	–	–
Calu-3 [3], 1000 nM	–	–	100	–	–
Calu-3 [3], 10000 nM	–	–	93.1	–	–
HepG2 [5], 1 nM	–	–	96.4	–	–
HepG2 [5], 10 nM	–	–	108	–	–
HepG2 [5], 100 nM	–	–	102	–	–
HepG2 [5], 1000 nM	–	–	93.5	–	–
HepG2 [5], 10000 nM	–	–	39.9	–	–
Vero E6 [2], 1 nM	–	–	95.8	–	–
Vero E6 [2], 10 nM	–	–	101	–	–
Vero E6 [2], 100 nM	–	–	99.3	–	–
Vero E6 [2], 1000 nM	–	–	97.4	–	–
Vero E6 [2], 10000 nM	–	–	84.3	–	–
[6], 0.3 µM	–	–	–	0.25	–
[6], 3 µM	–	–	–	0.65	–
[6], 10 µM	–	–	–	0.69	–
[6], 30 µM	–	–	–	0	–
[7], 0.3 µM	–	105	–	–	–
[7], 3 µM	–	120	–	–	–
[7], 10 µM	–	124	–	–	–
[7], 30 µM	–	117	–	–	–
[9], 0.3 µM	96	–	–	–	–
[9], 3 µM	59	–	–	–	–
[9], 10 µM	45	–	–	–	–
[9], 30 µM	19	–	–	–	–

drug-induced phospholipidosis [%], A549-ACE2 [8]
Conditions	0.3 µM	0.833333 µM	3.33333 µM	6.66667 µM	10 µM	30 µM
24 h	4.03	13.9	49.2	98.5	106	5.86
48 h	3.51	7.4	29.5	74.1	89.4	–
72 h	4.57	8.79	24.7	66.2	84.5	–

Conditions	drug sensitivity score	relative viability EC50 [µM]
Caco-2 [13]	0.8	–
Caco-2 [19]	–	> 10
Calu-3 [12]	0	–
Calu-3 [16]	–	> 10
HepG2 [14]	4.3	–
HepG2 [17]	–	2.28
Vero E6 [11]	0.5	–
Vero E6 [15]	–	> 10
